Reference: patent US3998963A, “Tertiary butyl substituted carbamoyl oxime pesticides” (priority 1975, dated 1976)
Converted amounts (≈) assume the structure as drawn.

Legend:
Type in all cases: in vivo
[1] = system: two-spotted mite (Tetranychus urticae Koch); assay: Mite Foliage Spray Test; conditions: foliar, 144 h, 6 days, read-out: Insect LD50, Mite
Method: (§1) Suspensions of the test compouns were prepared by dissolving one gram of compound in 50 milliliters of acetone in which had been dissolved 0.1 gram (10 percent of the weight of compound) of an alkylphenoxy polyethoxyethanol surfactant, as an emulsifying or dispersing agent. The resulting solution was mixed into 150 milliliters of water to give roughly 200 milliliters of a suspension containing the compound in finely divided form. The thus-prepared stock suspension contained 0.5 percent by weight of compound. The test concentrations in parts per million by weight employed in the tests described hereinbelow were obtained by appropriate dilutions of the stock suspension with water. The test procedures were as follows:
Adults and nymphal stage of the two-spotted mite (Tetranychus urticae Koch), reared on Tendergreen bean plants at 80±5 per cent relative humidity, were the test organisms. Infested leaves from a stock culture were placed on the primary leaves of two bean plants 6 to 8 inches in height, growing in a 21/2 inch clay pot. 150-200 Mites, a sufficient number for testing, transferred from the excised leaves to the fresh plants in a period of twenty four hours. Following the twenty four hour transfer period, the excised leaves were removed from the infested plants. The test compounds were formulated by diluting the stock suspension with water to give a suspension containing 500 parts of test compound per million parts of final formulation. The potted plants (one pot per compound) were placed on a revolving turntable and sprayed with 100-110 milliliters of test compound formulation by use of a DeVilbiss spray gun set at 40 psig. air pressure. This application, which lasted 25 seconds, was sufficient to wet the plants to run-off. As a control, 100-110 milliliters of a water solution containing acetone and emulsifier in the same concentrations as the test compound formulation, but containing no test compound, were also sprayed on infested plants. The sprayed plants were held at 80±5 per cent relative humidity for 6 days, after which a mortality count of motile forms was made. Microscopic examination for motile forms was made on the leaves of the test plants. Any individual which was capable of locomotion upon prodding was considered living.

[2] = system: Mexican bean beetle (Epilachna varivestis, Muls.); assay: Mexican Bean Beetle Leaf Spray Test; conditions: 72 h, 3 days, read-out: Insect LD50, Beetle
Method: as §1
Mexican Bean Beetle Leaf Spray Test
Fourth instar lavae of the Mexican bean beetle (Epilachna varivestis, Muls.), reared on Tendergreen bean plants at a temperature of 80°±5° F. and 50±5 per cent relative humidity, were the test insects.
The test compounds were formulated by diluting the stock suspension with water to give a suspension containing 500 parts of test compound per million parts of final formulation. Potted Tendergreen bean plants of standard height and age were placed on a revolving turntable and sprayed with 100-110 milliliters of test comound formulation by use of a DeVilbiss spray gun set at 10 psig air pressure. This application, which lasted 25 seconds, was sufficient to wet plants to run-off. As a control, 100-110 milliliters of a water-acetone-emulsifier solution containing no test compound were also sprayed on infested plants. When dry, the paired leaves were separated and each was placed in a 9 centimeter Petri dish lined with moistened filter paper. Five randomly selected larvae were introduced into each dish, and the dishes were closed. The closed dishes were labeled and held at a temperature of 80°±5° F, for 3 days. Although the larvae could easily consume the leaf within 24 to 48 hours, no more food was added. Larvae which were unable to move the length of the body, even upon stimulation, were considered dead.

[3] = system: house flies (Musca domestica, L.); assay: Fly Bait Test; conditions: Musca domestica, 24 hours, read-out: Insect LD50, Housefly
Method: as §1
Four to six day old adult house flies (Musca domestica, L.), reared according to the specifications of the Chemical Specialities Manufacturing Association (Blue Book, McNair-Dorland Co., N.Y. 1954; pages 243-244, 261) under controlled conditions of 80°±5° F. and 50±5 per cent relative humidity, were the test insects. The flies were immobilized by anesthetizing with carbon dioxide and twenty five immobilized individuals, males and females, were transferred to a cage consisting of a standard food strainer about five inches in diameter which was inverted over a wrapping-paper covered surface. The test compounds were formulated by diluting the stock suspension with a 10 per cent (by weight) sugar solution to give a suspension containing 500 parts of test compound per million parts of final formulation, by weight. Ten milliliters of the test formulation were added to a souffle cup containing a 1-inch square of an absorbent cotton pad. This bait cup was introduced and centered on the blotting paper under the food strainer prior to admitting the anesthetized flies. The caged flies were allowed to feed on the bait for 24 hours, at a temperature of 80°±5° F. and the relative humidity of 50±5 per cent.
(§2) In Table 1 are presented insect and rat toxicity data (bait tests) on a comparative basis of the compounds described above. […] Rat toxicity is also more meaningfully compared on the basis of molar weight LD50 values. The relative efficacy of the parent compounds as compared to the previously known derivatives and as compared to the new compounds of this invention is also shown in Table 1. The ratio of efficacy as contact poisons (immersion/bait) of the compounds tested against Armyworm and House Fly is presented in Table 2 along with the results of the phytotoxicity tests of the compounds on bean, corn, tomato and cotton.

[4] = system: southern armyworm (Spodoptera eridania, (Cram.)); assay: Southern Armyworm Leaf Spray Bait Test
Method: as §1
Southern Armyworm Leaf Spray Bait Test
Larvae of the southern armyworm (Spodoptera eridania, (Cram.)), reared on Tendergreen bean plants at a temperature of 80°±5° F. and a relative humidity of 50±5 per cent, constituted the test insects.
The test compounds were formulated by diluting the stock suspension with water to give a suspension containing 500 parts of test compound per million parts of final formulation. Potted Tendergreen bean plants of standard height and age were placed on a revolving turntable and sprayed with 100-110 milliliters of test compound formulation by use of a DeVilbiss spray gun set at 10 psig air pressure. This application, which lasted 25 seconds, was sufficient to wet plants to run-off. As a control, 100-110 milliliters of a water-acetone-emulsifier solution containing no test compound were also sprayed on infested plants. When dry, the paired leaves were separated and each one was placed in a 9 centimeter Petri dish lined with moistened filter paper. Five randomly selected larvae were introduced into each dish and the dishes were closed. The closed dishes were labeled and held at 80°-85° F. for 3 days. Although the larvae could easily consume the whole leaf within 24 hours, no more food was added. Larvae which were unable to move the length of the body, even upon stimulation by prodding, were considered dead. Per cent mortality was recorded for various concentration levels.
as §2

[5] = system: bean aphid (Aphis fabae Scop.); assay: Bean Aphid Foliage Spray Test; conditions: foliar, 24 hour holding period, read-out: Insect LD50, Aphid
Method: as §1
Bean Aphid Foliage Spray Test
Adults and nymphal stages of the bean aphid (Aphis fabae Scop.) reared on potted dwarf nasturtium plants at 65°-70° F. and 50-70 per cent relative humidity, constituted the test insects. For testing purposes, the number of aphids per pot was standardized to 100-150 by trimming plants containing excess aphids.
The test compounds were formulated by diluting the stock suspension with water to give a suspension containing 500 parts of test compound per million parts of final formulation.
The potted plants (one pot per compound tested) infested with 100-150 aphids, were placed on a revolving turntable and sprayed with 100 -110 milliliters of test compound formulation by use of a DeVilbiss spray gun set at 40 psig. air pressure. This application, which lasted 25 seconds, was sufficient to wet the plants to run-off. As a control, 100-110 milliliters of a water-acetone-emulsifier solution containing no test compound were also sprayed on infested plants. After spraying, the pots were placed on their sides on a sheet of white standard mimeograph paper which had peen previously ruled to facilitate counting. Temperature and humidity in the test room during the 24 hour holding period were 65°-70° F. and 50-70 per cent, respectively. Aphids which fell onto the paper and were unable to remain standing after being uprighted were considered dead. Aphids remaining on the plants were observed closely for movement and those which were unable to move the length of the body upon stimulation by prodding were considered dead. Per cent mortality was recorded for various concentration levels.

CCSC(C)=NOC(=O)N(C)Sc1ccc(C(C)(C)C)cc1 [Compound 10]
LC50 [1]: > 500 mg/L | LC50 [2]: 20 mg/L (≈ 58.7 µM) | LC50 [3]: 13 mg/L (≈ 38.2 µM) | LC50 ([4]; Spodoptera eridania, 72 h, leaf spray bait, 3 days, read-out: Insect LD50, Armyworm): 14 mg/L (≈ 41.1 µM) | (b) relative efficacy of derivative vs parent compound, Armyworm ([4]; bait, formula of footnote b is drawing 8): 1.52 | LC50 [5]: 5 mg/L (≈ 14.7 µM)
